# In publication PMC5095062, “The novel choline kinase inhibitor ICL-CCIC-0019 reprograms cellular metabolism and inhibits cancer cell growth” (Oncotarget, 2016):
# Read-outs that look alike come from different tables or passages of the source.
# How the values were obtained:
# [1] = system: non-small lung cancer cell lines; test: NCI-60 screen; format: cell-based; details: Homo sapiens, read-out: median GI50
# Excerpt: (§1) The compound was then screened against a larger panel of cancer cell lines of diverse histopathologic origin, the NCI-60 screen. […] Mining of publicly available Cancer Genome Atlas (TCGA) expression data identified CHKA amplification and/or mRNA upregulation in 11% of breast, 5–10% of lung, 8% of ovarian, 7% of colorectal and 5% of prostate cancers. Furthermore, CHKA mRNA expression is higher in multiple tumor types compared to normal tissue (Supplementary Figure S1D). The gene was rarely mutated or deleted (0–2.5% mutation rate and < 1% deletion among all tested cancer types). The consistently high expression in a wide variety of tumor types highlights the relevance of CHKA in malignancy and role as a therapeutic target.
# Breast cancer cell lines = test: NCI-60 screen; format: cell-based; details: Homo sapiens, read-out: median GI50
# Excerpt: as §1
# HCT116 cells = test: Metabolomics (LC-MS of soluble metabolites); format: cell-based, human; details: for change of intracellular PCho pool: 24 h
# Experimental: Unlabeled metabolite analyses were conducted as previously reported. HCT116 cells cultured overnight in 6-well plates were treated with vehicle, 1 or 10 μM ICL-CCIC-0019 for 24 h prior to extraction. For flux experiments, HCT116 cells were plated onto 6-well plates and cultured overnight. The cells were then grown in medium containing vehicle or 1 μM ICL-CCIC-0019 for 24 h. The medium was then replaced with that containing ^13C metabolites (5 mM ^13C6-glucose or 0.2 mM ^13C2-acetate) and inhibitor for various indicated time points. Metabolites were extracted with a cold solution (−20°C) composed of methanol, acetonitrile, and water (5:3:2). The insoluble material was immediately pelleted in a cooled (0°C) centrifuge at 16,000 × g for 15 min and the supernatant was collected for subsequent LC-MS analysis. A ZIC-pHILIC column (4.6 mm × 150 mm, guard column 2.1 mm × 20 mm, Merck) was used for LC separation using formic acid, water, and acetonitrile as component of the mobile phase. Metabolites were detected using an Exactive mass spectrometer (ThermoFisher).
# CHKA = molecular target: T1, CHKA (Homo sapiens, UniProt P35790); test: CHKA dimer integrity by BN-PAGE; format: cell-based; details: HCT116 cells, 24 hours
# T1 construct: endogenous in cells; host or cells: HCT116
# T1 sequence (P35790 whole entry): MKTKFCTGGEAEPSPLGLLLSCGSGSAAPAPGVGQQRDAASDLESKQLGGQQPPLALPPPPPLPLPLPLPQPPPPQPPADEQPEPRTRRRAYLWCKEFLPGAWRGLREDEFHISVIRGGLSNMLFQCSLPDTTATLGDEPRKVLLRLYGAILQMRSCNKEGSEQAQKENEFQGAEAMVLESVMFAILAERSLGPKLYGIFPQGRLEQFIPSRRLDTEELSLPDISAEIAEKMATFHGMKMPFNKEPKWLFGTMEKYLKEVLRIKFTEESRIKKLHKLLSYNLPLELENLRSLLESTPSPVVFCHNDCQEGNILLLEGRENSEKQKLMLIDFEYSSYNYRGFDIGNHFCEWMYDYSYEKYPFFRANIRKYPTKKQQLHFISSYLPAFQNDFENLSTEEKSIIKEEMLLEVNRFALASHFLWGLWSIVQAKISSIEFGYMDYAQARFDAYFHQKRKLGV
# Experimental: Native gels were run using blue native polyacrylamide gel electrophoresis (BN-PAGE) method. Cell homogenates were obtained by addition of passive lysis buffer (Promega) containing protease and phosphatase inhibitors to cell pellets and incubation for 30 minutes on a tube rotor at 4°C. Samples were cleared by centrifugation for 10 minutes at 12 000 × g at 4°C. Samples were prepared by mixing 30 μg protein with an equal volume of 2 × sample buffer (62.5 mM Tris-HCl, pH 6.8, 25% (v/v) glycerol, 0.01% (w/v) bromophenol blue, 0.02% (w/v) Coomassi Blue G250; all from Sigma-Aldrich). As control, D49N CHKA2 [58] was either applied under native conditions (100 ng diluted to 10 μL in 100 mM Tris buffer pH 7.4 added to 10 μL 2 × sample buffer) or denatured using SDS [100 ng diluted in RIPA buffer, 1 × NuPAGE LDS sample buffer and 1 × sample reducing agent (both Life Technologies)] and incubated at 70°C for 10 minutes. Samples were resolved on 4–15% mini-protean TGX gels using 1 × native running buffer (25 mM Tris, 192 mM glycine, pH 8.3). The cathode buffer was additionally supplemented with 750 μL Coomassi Blue G250 [final concentration ca. 0.04% (w/v)]. Membranes were transferred and probed as described above.
# 2 normal cell lines = test: Antiproliferative activity (SRB), initial cell line screen; format: cell-based; details: Homo sapiens; normal cells
# Experimental: (§2) Enzymatic kinase activity, [^3H]choline to [^3H]PCho conversion and growth inhibition assays was conducted as previously described. [^3H]choline incorporation into soluble and lipid fractions was determined by a pulse-chase experiment. HCT116 cells were seeded at a density of 3 × 10^5 cell per well into 12-well plates and incubated overnight. Cells were treated with 1 or 10 μM ICL-CCIC-0019 for 1 h and pulsed in presence of inhibitor with 18.5 kBq/mL [^3H]choline chloride in 500 μL for 1 additional h. Cells were briefly rinsed with RPMI and incubated with fresh, non-radioactive medium for 6 h. Metabolites were extracted as described elsewhere, but additionally the radioactivity of the choline-containing and chloroform (lipid-containing) fractions was measured. Uptake of radiolabeled metabolite-tracers was measured as described elsewhere. Antiproliferative activity was measured after 72 h continuous exposure to inhibitors by sulforhodamine B (SRB) assay as described elsewhere. Apoptosis was determined using Caspase 3/7 Glo assay (Promega) according to the manufacturer's instructions.
# 8 cancer cell lines = test: as above; format: cell-based; details: Homo sapiens
# Experimental: as §2
# A549 cells = test: Comparative antiproliferative activity; format: cell-based, human
# Experimental: as §2
# HCT116 xenografts = test: [18F]-D4-FCH PET imaging; format: in vivo, BALB/c nude mice
# Excerpt: Mice were anesthetized through isoflurane inhalation and scanned on a Siemens Multimodality Inveon small animal PET-CT scanner for [^18F]-D4-FCH PET studies using HCT116 xenografts. Low dose CT scans were first acquired (80 kVp, 0.5 mA, 220 degree rotation, 600 ms per degree exposure time, 80 μm reconstruction pixel size) for PET attenuation correction and anatomical reference. PET images were acquired following a bolus i.v. injection of approximately 3.7 MBq tracer in the tail vein. Dynamic emission scans were acquired in list mode format over 60 minutes. Data were sorted into 0.5 mm sinogram bins and 19 time frames for image reconstruction by filtered back projection (4 × 15 seconds, 4 × 60 seconds and 11 × 300 seconds). The Siemens Inveon Research Workplace software was used for visualization of radiotracer uptake. To define 3-dimensional regions of interest (ROI), 30 to 60-minute cumulative images of the dynamic were employed. Arterial input function was estimated by drawing ROIs over the center of the heart cavity using cumulative images from 0.25 to 2 minutes of the dynamic series, a method previously validated for use in rodents. The count densities were averaged for all ROIs at each time point to obtain time versus radioactivity curves (TAC). Tumor TACs were normalized to injected dose measured by a VDC-304 dose calibrator (Veenstra Instruments) and normalized uptake was expressed as percentage injected dose per mL tissue (NUV; %ID/mL).
compound,measurement,setting,value
CN(C)c1cc[n+](CCCCCCCCCCCC[n+]2ccc(N(C)C)cc2)cc1 [ICL-CCIC-0019],GI50,[1],751 nM
same,GI50,Breast cancer cell lines,627 nM
same,change of intracellular PCho pool,HCT116 cells; 1 μM,−56%
same,change of intracellular PCho pool,HCT116 cells; 10 μM,−61%
same,decrease in S-adenosylhomocysteine (SAH),HCT116 cells; HCT116 cells,26%
same,increase in SAM,HCT116 cells; HCT116 cells,11%
same,CHKA enzyme dimerization,CHKA,not compromised
same,GI50,2 normal cell lines,30 to 120 µM
same,GI50,8 cancer cell lines; read-out: GI50 range,380 to 2700 nM
same,GI50,8 cancer cell lines; read-out: mean GI50,1090 nM
same,antiproliferative activity compared with CK37,A549 cells,superior to CK37
same,antiproliferative activity compared with MN58B,A549 cells,equipotent to MN58B
same,[18F]-D4-FCH tumor uptake AUC0–60,HCT116 xenografts; 6 hours after 10 mg/kg i.p. single dose,187.7 (%ID/mL)*min
same,[18F]-D4-FCH tumor uptake AUC0–60,HCT116 xenografts; 24 hours after 10 mg/kg i.p. single dose,145.8 (%ID/mL)*min
same,[18F]-D4-FCH tumor uptake AUC0–60,HCT116 xenografts; 48 hours after 10 mg/kg i.p. single dose,139.4 (%ID/mL)*min
